Measured values reported in ChEMBL document CHEMBL1139267, “Discovery of a potent, selective and orally bioavailable 3,9-diazaspiro[5.5]undeca-2-one CCR5 antagonist” (Bioorg Med Chem Lett, 2009).

Legend:
[1] = molecular target: C-C chemokine receptor type 5 (Homo sapiens, UniProt P51681); assay: Antagonist activity at CCR5 receptor by radiolabeled RANTES binding assay
[2] = tested on: Human immunodeficiency virus 1; assay: Antiviral activity against R5 tropic HIV1 BaL infected in human JC53-BL cells expressing CCR5 after 2 days by cell-cell fusion assay; type: functional, organism-based; details: Human immunodeficiency virus 1, BaL, JC53BL, 48 h
[3] = Metabolic stability in human liver microsomes assessed as clearance; type: ADME, Microsome
[4] = molecular target: T1, C-C chemokine receptor type 1 (Homo sapiens, UniProt P32246); assay: Inhibition of CCR1 receptor
T1 sequence (P32246 whole entry): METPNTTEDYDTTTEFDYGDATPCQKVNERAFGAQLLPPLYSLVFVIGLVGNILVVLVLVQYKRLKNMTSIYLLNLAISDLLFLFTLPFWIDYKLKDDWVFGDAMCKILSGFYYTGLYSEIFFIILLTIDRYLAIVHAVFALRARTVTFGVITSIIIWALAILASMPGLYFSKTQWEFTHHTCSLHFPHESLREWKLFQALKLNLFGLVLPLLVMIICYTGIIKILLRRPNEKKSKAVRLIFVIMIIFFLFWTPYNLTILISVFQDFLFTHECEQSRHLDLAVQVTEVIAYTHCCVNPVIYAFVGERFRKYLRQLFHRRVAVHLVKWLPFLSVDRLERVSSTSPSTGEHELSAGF

[5] = molecular target: C-C chemokine receptor type 2 (Homo sapiens, UniProt P41597); assay: Inhibition of CCR2 receptor
C-C chemokine receptor type 2, sequence (P41597 whole entry): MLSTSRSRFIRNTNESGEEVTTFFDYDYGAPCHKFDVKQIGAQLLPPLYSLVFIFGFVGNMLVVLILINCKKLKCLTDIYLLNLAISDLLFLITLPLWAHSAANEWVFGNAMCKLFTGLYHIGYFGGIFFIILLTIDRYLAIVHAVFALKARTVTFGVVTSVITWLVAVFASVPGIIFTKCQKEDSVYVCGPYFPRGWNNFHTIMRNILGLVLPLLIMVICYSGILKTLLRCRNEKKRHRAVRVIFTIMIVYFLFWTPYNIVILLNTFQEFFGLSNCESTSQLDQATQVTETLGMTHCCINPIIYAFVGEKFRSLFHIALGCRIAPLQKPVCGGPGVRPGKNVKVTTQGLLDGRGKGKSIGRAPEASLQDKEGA

[6] = molecular target: T2, C-C chemokine receptor type 3 (Homo sapiens, UniProt P51677); assay: Inhibition of CCR3 receptor
T2 sequence (P51677 whole entry): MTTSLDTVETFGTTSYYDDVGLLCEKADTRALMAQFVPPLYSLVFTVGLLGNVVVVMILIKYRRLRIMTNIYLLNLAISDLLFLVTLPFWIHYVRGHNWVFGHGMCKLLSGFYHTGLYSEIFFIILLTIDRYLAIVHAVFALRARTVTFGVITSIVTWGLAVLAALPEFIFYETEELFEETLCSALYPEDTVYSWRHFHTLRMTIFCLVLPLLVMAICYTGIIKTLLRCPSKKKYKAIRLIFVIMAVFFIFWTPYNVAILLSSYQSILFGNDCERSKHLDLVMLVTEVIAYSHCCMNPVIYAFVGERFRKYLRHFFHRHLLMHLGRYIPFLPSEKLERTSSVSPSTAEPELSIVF

[7] = molecular target: T3, C-C chemokine receptor type 4 (Homo sapiens, UniProt P51679); assay: Inhibition of CCR4 receptor
T3 sequence (P51679 whole entry): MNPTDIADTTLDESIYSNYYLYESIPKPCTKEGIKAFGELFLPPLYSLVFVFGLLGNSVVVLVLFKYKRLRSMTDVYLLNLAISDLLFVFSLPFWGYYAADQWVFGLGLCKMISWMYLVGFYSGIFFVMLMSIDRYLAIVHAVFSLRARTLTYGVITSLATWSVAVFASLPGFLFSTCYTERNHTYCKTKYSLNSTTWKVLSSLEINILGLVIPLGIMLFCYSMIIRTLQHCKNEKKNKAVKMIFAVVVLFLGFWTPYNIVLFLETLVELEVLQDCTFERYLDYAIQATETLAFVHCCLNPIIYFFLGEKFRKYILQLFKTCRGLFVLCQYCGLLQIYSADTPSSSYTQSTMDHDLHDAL

[8] = molecular target: T4, C-C chemokine receptor type 6 (Homo sapiens, UniProt P51684); assay: Inhibition of CCR6 receptor
T4 sequence (P51684 whole entry): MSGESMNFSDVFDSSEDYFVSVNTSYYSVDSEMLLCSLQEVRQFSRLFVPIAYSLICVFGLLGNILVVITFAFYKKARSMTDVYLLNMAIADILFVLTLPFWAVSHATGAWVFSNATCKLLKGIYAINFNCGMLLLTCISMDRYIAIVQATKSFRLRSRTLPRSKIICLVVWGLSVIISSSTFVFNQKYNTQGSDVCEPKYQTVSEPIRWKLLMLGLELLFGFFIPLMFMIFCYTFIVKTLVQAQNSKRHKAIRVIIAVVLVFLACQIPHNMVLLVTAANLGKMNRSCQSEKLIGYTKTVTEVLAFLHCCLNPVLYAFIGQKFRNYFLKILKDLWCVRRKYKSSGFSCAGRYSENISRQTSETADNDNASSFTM

[9] = molecular target: C-X-C chemokine receptor type 4 (Homo sapiens, UniProt P61073); assay: Inhibition of CXCR4 receptor
C-X-C chemokine receptor type 4, sequence (P61073 whole entry): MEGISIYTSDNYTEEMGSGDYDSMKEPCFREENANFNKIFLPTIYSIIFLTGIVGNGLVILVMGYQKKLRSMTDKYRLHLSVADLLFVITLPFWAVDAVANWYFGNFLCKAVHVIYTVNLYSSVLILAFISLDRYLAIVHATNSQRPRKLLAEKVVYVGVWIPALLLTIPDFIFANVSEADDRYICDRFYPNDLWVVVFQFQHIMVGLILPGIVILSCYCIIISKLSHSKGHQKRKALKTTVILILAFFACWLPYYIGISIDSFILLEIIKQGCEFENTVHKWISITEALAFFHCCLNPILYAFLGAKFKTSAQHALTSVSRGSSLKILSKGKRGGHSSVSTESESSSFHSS

hERG (KCNH2) = hERG (KCNH2) (Homo sapiens, UniProt Q12809); assay: Inhibition of human ERG receptor
hERG (KCNH2), sequence (Q12809 whole entry): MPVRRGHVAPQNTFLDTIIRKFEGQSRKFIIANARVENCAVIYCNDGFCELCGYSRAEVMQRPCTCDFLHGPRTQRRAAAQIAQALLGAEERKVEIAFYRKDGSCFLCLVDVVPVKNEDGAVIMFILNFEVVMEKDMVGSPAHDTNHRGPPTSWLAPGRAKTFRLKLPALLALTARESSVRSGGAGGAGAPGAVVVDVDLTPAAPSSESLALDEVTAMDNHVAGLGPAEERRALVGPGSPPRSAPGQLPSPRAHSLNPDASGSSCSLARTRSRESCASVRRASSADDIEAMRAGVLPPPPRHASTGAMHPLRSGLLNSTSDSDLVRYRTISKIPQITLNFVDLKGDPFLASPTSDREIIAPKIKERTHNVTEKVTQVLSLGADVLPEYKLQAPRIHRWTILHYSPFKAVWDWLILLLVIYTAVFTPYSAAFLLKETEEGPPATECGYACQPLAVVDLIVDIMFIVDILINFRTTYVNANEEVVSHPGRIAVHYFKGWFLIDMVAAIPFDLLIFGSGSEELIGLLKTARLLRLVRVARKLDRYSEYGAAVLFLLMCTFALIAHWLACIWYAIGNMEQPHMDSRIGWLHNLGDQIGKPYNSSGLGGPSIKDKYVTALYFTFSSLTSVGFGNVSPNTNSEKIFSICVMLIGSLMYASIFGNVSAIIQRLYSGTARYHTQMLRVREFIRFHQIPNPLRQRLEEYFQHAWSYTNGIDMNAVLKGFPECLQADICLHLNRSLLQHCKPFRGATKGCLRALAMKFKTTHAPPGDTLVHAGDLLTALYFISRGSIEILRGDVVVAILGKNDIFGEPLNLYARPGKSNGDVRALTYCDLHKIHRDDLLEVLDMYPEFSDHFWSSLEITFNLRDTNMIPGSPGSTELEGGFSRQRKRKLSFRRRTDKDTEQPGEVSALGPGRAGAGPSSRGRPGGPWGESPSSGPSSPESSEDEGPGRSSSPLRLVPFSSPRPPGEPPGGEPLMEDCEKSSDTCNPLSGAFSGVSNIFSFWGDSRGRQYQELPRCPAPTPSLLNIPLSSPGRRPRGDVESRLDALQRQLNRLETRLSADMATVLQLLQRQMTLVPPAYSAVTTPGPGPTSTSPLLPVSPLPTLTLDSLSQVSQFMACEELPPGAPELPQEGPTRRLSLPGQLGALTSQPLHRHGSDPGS

Rattus norvegicus [10] = assay: Tmax in rat at 2 mg/kg, po; type: ADME, organism-based; design: dose 2 mg/kg, route oral; details: in vivo
Rattus norvegicus [11] = assay: Cmax in rat at 2 mg/kg, po; type: ADME, organism-based; design: dose 2 mg/kg, route oral; details: in vivo
[12] = Half life in rat at 0.5 mg/kg, iv; type: ADME, organism-based; design: dose 0.5 mg/kg, route intravenous; details: in vivo
Rattus norvegicus [13] = assay: Half life in rat at 2 mg/kg, po; type: ADME, organism-based; design: dose 2 mg/kg, route oral; details: in vivo
[14] = Mean retention time in rat at 0.5 mg/kg, iv; type: ADME, organism-based; design: dose 0.5 mg/kg, route intravenous; details: in vivo
[15] = Mean retention time in rat at 2 mg/kg, po; type: ADME, organism-based; design: dose 2 mg/kg, route oral; details: in vivo
[16] = AUC in rat at 0.5 mg/kg, iv; type: ADME, organism-based; design: dose 0.5 mg/kg, route intravenous; details: plasma
Rattus norvegicus [17] = assay: AUC in rat at 2 mg/kg, po; type: ADME, organism-based, Plasma; design: dose 2 mg/kg, route oral; details: in vivo
[18] = Clearance in rat at 0.5 mg/kg, iv; type: ADME, organism-based; design: dose 0.5 mg/kg, route intravenous; details: in vivo
[19] = Volume of distribution at steady state in rat at 0.5 mg/kg, iv; type: ADME, organism-based; design: dose 0.5 mg/kg, route intravenous; details: in vivo, read-out: Vdss
[20] = Oral bioavailability in rat at 2 mg/kg; type: ADME, organism-based; details: in vivo
[21] = tested on: Human immunodeficiency virus 1; assay: Inhibition of R5 tropic HIV1 BaL replication in human PBMC; type: functional, organism-based; details: Human immunodeficiency virus 1, BaL

C-C chemokine receptor type 5, sequence (P51681 whole entry, the tested form may be a part): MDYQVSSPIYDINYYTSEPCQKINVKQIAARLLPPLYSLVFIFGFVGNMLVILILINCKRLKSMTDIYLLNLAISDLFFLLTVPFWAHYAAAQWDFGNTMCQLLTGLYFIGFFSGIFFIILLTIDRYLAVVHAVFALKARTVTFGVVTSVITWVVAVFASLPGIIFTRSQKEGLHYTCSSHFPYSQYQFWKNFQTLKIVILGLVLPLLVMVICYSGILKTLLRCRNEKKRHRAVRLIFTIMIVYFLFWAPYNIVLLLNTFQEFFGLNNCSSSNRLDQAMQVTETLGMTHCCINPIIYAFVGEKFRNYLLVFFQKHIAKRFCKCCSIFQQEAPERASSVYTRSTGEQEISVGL

Row | SMILES | IC50 [1] [nM] | IC50 [2] [nM] | microsomal CLint [3] [µL/min/mg] | also measured
1 | CCCCC1C(=O)N(Cc2ccc(F)cc2)CCC12CCN(C1(C)CCN(C(=O)c3c(C)ncnc3C)CC1)CC2 (configuration not stated) | 19 | 100 | – | –
2 | Cc1ncnc(C)c1C(=O)N1CCC(C)(N2CCC3(CC2)CCN(S(C)(=O)=O)CC3c2ccccc2)CC1 (configuration not stated) | 104 | 1900 | – | –
3 | CCCCC1C(=O)N(C[C@H]2CC[C@H](OCC)CC2)CCC12CCN(C1(C)CCN(C(=O)c3c(C)ncnc3C)CC1)CC2 (some centres not stated) | 30 | 5 | – | IC50 [4]: > 50000 nM; IC50 [5]: > 50000 nM; IC50 [6]: > 50000 nM; IC50 [7]: > 50000 nM; IC50 [8]: > 50000 nM; IC50 [9]: > 50000 nM; IC20 (hERG (KCNH2)): 3000 nM; Tmax (Rattus norvegicus [10]): 1 h; Cmax (Rattus norvegicus [11]): 2.03 ng/mL; half-life [12]: 3.8 h; t1/2 (Rattus norvegicus [13]): 4.19 h; MRT [14]: 2.65 h; MRT [15]: 4.33 h; AUC [16]: 334 ng·h/mL; AUC (Rattus norvegicus [17]): 910 ng·h/mL; clearance [18]: 24.1 mL/min/kg; Vd [19]: 4.71 L/kg; bioavailability [20]: 66%; IC50 [21]: 1.4 nM; IC90 [21]: 7.5 nM
4 | CCCCC1CN(C(=O)OC2CCOCC2)CCC12CCN(C1(C)CCN(C(=O)c3c(C)ncnc3C)CC1)CC2 (configuration not stated) | 349 | > 5000 | – | –
5 | CCCOC1CN(S(=O)(=O)C2CC2)CCC12CCN(C1(C)CCN(C(=O)c3c(C)ncnc3C)CC1)CC2 (configuration not stated) | 80 | 400 | – | –
6 | CCCCC1C(=O)N(CC2CCN(CC(F)F)CC2)CCC12CCN(C1(C)CCN(C(=O)c3c(C)ncnc3C)CC1)CC2 (configuration not stated) | 70 | 26 | – | –
7 | CCCC[C@H]1CN(S(=O)(=O)CC(F)(F)F)CCC12CCN(C1(C)CCN(C(=O)c3c(C)ncnc3C)CC1)CC2 | 19 | 3 | 53 | –
8 | CCCC[C@@H]1C(=O)N(C[C@H]2CC[C@H](OCC)CC2)CCC12CCN(C1(C)CCN(C(=O)c3c(C)ncnc3C)CC1)CC2 | – | – | – | IC50 [21]: 0.5 nM; IC90 [21]: 3 nM
9 | CCCC[C@H]1CN(C(=O)NC)CCC12CCN(C1(C)CCN(C(=O)c3c(C)ncnc3C)CC1)CC2 | 35 | 4 | – | –
10 | CCCCC1CN(C(=O)C2CCOCC2)CCC12CCN(C1(C)CCN(C(=O)c3c(C)cc(C#N)nc3C)CC1)CC2 (configuration not stated) | 217 | 170 | – | –
11 | CCCCC1CN(S(=O)(=O)c2cn(C)cn2)CCC12CCN(C1(C)CCN(C(=O)c3c(C)ncnc3C)CC1)CC2 (configuration not stated) | 27 | 7 | 96 | –
12 | CCCCC1CN(CC2CCOCC2)CCC12CCN(C1(C)CCN(C(=O)c3c(C)ncnc3C)CC1)CC2 (configuration not stated) | > 500 | > 5000 | – | –
13 | CCCCC1C(=O)N(CC2CCN(C(=O)OC)CC2)CCC12CCN(C1(C)CCN(C(=O)c3c(C)ncnc3C)CC1)CC2 (configuration not stated) | 60 | 8 | – | –
14 | CCCCC1CN(S(=O)(=O)C2CCN(C(C)=O)CC2)CCC12CCN(C1(C)CCN(C(=O)c3c(C)ncnc3C)CC1)CC2 (configuration not stated) | 78 | 10 | 70 | –
15 | CCCCC1CN(S(=O)(=O)N2CCOCC2)CCC12CCN(C1(C)CCN(C(=O)c3c(C)ncnc3C)CC1)CC2 (configuration not stated) | 11 | 1 | 276 | –
16 | CCCCC1CN(S(=O)(=O)C2CCN(C=O)CC2)CCC12CCN(C1(C)CCN(C(=O)c3c(C)ncnc3C)CC1)CC2 (configuration not stated) | 64 | 14 | 60 | –
17 | CCCCC1CN(S(=O)(=O)C2CC2)CCC12CCN(C1(C)CCN(C(=O)c3c(C)ncnc3C)CC1)CC2 (configuration not stated) | 22 | 7 | 100 | –
18 | CCCC[C@H]1C(=O)N(C[C@H]2CC[C@H](OCC)CC2)CCC12CCN(C1(C)CCN(C(=O)c3c(C)ncnc3C)CC1)CC2 | – | – | – | IC50 [21]: 0.8 nM; IC90 [21]: 4 nM
19 | CCCCC1CN(C(=O)C2CCOCC2)CCC12CCN(C1(C)CCN(C(=O)c3c(C)ncnc3C)CC1)CC2 (configuration not stated) | > 500 | > 5000 | – | –

Further molecules by falling IC50 [1], results first:

Row | IC50 [1] [nM] | IC50 [2] [nM] | microsomal CLint [3] [µL/min/mg] | SMILES | also measured
20 | 76 | 10 | – | CCCCC1C(=O)N(C[C@H]2CC[C@H](O)CC2)CCC12CCN(C1(C)CCN(C(=O)c3c(C)ncnc3C)CC1)CC2 (some centres not stated) | –
21 | 60 | 7 | 207 | CCCCC1CN(S(=O)(=O)N(C)C)CCC12CCN(C1(C)CCN(C(=O)c3c(C)ncnc3C)CC1)CC2 (configuration not stated) | –
22 | 37 | 6 | – | CCCCC1C(=O)N(C[C@H]2CC[C@H](OC)CC2)CCC12CCN(C1(C)CCN(C(=O)c3c(C)ncnc3C)CC1)CC2 (some centres not stated) | –
23 | 31 | < 2.5 | – | CCCCC1C(=O)N(C[C@H]2CC[C@H](O)CC2)CCC12CCN(C1(C)CCN(C(=O)c3c(C)cc(C#N)nc3C)CC1)CC2 (some centres not stated) | –
24 | 30 | 4 | – | CCCCC1C(=O)N(CC2CCOCC2)CCC12CCN(C1(C)CCN(C(=O)c3c(C)ncnc3C)CC1)CC2 (configuration not stated) | –
25 | 25 | 100 | 7 | CCCCC1CN(S(C)(=O)=O)CCC12CCN(C1(C)CCN(C(=O)c3c(C)ncnc3C)CC1)CC2 (configuration not stated) | –
26 | 22 | 6 | 280 | CCCCC1CN(S(=O)(=O)C2CCOCC2)CCC12CCN(C1(C)CCN(C(=O)c3c(C)ncnc3C)CC1)CC2 (configuration not stated) | –
27 | 19 | < 1 | 773 | CCCCC1CN(S(=O)(=O)c2ccccc2)CCC12CCN(C1(C)CCN(C(=O)c3c(C)ncnc3C)CC1)CC2 (configuration not stated) | –
28 | 18 | 4 | 310 | CCCCC1CN(S(=O)(=O)c2ccccn2)CCC12CCN(C1(C)CCN(C(=O)c3c(C)ncnc3C)CC1)CC2 (configuration not stated) | –
